Source: US9765074B2, “Inhibitors of the renal outer medullary potassium channel” (Merck Sharp & Dohme Corp., priority 2013, dated 2017)

target: T1, hROMK (hKir1.1) (Homo sapiens, UniProt P48048); experiment: Thallium Flux Assay (ROMK channel functional thallium flux, FLIPR-Tetra); format: cell-based; conditions: HEK293 cells stably expressing hROMK (hKir1.1); 30 min compound incubation
T1 construct: expressed in transfected cells
T1 sequence (P48048 1-391): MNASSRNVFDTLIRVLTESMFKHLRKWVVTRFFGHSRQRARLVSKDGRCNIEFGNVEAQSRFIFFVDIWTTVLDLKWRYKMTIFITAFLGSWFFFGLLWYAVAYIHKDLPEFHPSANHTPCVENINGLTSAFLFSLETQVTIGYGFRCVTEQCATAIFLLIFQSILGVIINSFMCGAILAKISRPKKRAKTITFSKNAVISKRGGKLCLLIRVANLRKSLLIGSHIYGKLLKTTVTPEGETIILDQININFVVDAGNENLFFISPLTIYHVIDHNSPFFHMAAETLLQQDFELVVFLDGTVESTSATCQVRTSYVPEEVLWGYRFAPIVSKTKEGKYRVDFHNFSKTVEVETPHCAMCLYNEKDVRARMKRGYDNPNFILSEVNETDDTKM
Outline: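 HEK293 cells stably expressing hKir1.1, loaded with FluxOR dye for 90 min, then preincubated with compound for 30 min at ambient temperature with 0.3 mM ouabain and probenecid. Stimulated with 3 mM thallium/0.3 mM potassium (final); fluorescence read ~10 min. Normalized to 3 μM reference ROMK inhibitor; IC50 from inhibition of flux.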

How did the IC50 turn out when `C[C@H]1CC2(CCN(C[C@H](O)c3ccc(-n4cnnn4)nc3)CC2)C(=O)N1C1=CC(=O)OC1` [Example 81, (3S)-8-{(2R)-2-hydroxy-2-[6-(1H-tetrazol-1-yl)pyridin-3-yl]ethyl}-3-methyl-1-oxo-2-(5-oxo-2,5-dihydrofuran-3-yl)-2-aza-8-azoniaspiro[4.5]decane] was run?
Its IC50 is 0.01 µM.

How did the IC50 turn out when `C[C@H]1CC2(CCN(C[C@@H](O)c3ccc(-n4cnnn4)nc3)CC2)C(=O)N1C1=CC(=O)OC1` [Example 82, (3S)-8-{(2S)-2-hydroxy-2-[6-(1H-tetrazol-1-yl)pyridin-3-yl]ethyl}-3-methyl-1-oxo-2-(5-oxo-2,5-dihydrofuran-3-yl)-2-aza-8-azoniaspiro[4.5]decane] was run?
The IC50 was 0.01 µM.

`C[C@@H]1CC2(CCN(C[C@H](O)c3ccc(-n4cnnn4)nc3)CC2)C(=O)N1C1=CC(=O)OC1` [Example 83, (3R)-8-{(2R)-2-hydroxy-2-[6-(1H-tetrazol-1-yl)pyridin-3-yl]ethyl}-3-methyl-1-oxo-2-(5-oxo-2,5-dihydrofuran-3-yl)-2-aza-8-azoniaspiro[4.5]decane] was tested. Which IC50 did it give?
Its IC50 is 0.01 µM.

Which IC50 does the source give for `C[C@@H]1CC2(CCN(C[C@@H](O)c3ccc(-n4cnnn4)nc3)CC2)C(=O)N1C1=CC(=O)OC1` [Example 84, (3R)-8-{(2S)-2-hydroxy-2-[6-(1H-tetrazol-1-yl)pyridin-3-yl]ethyl}-3-methyl-1-oxo-2-(5-oxo-2,5-dihydrofuran-3-yl)-2-aza-8-azoniaspiro[4.5]decane] here?
The IC50 was 0.01 µM.

For `CC1=C(N2CCC3(CCN(C[C@H](O)c4cnc(-n5cnnn5)nc4C)CC3)C2=O)COC1=O` [Example 85, 8-{(2R)-2-hydroxy-2-[4-methyl-2-(1H-tetrazol-1-yl)pyrimidin-5-yl]ethyl}-2-(4-methyl-5-oxo-2,5-dihydrofuran-3-yl)-1-oxo-2-aza-8-azoniaspiro[4.5]decane], which IC50 is on record?
The IC50 was 0.03 µM.

For `CC1=C(N2CCC3(CCN(C[C@@H](O)c4cnc(-n5cnnn5)nc4C)CC3)C2=O)COC1=O` [Example 86, 8-{(2S)-2-hydroxy-2-[4-methyl-2-(1H-tetrazol-1-yl)pyrimidin-5-yl]ethyl}-2-(4-methyl-5-oxo-2,5-dihydrofuran-3-yl)-1-oxo-2-aza-8-azoniaspiro[4.5]decane], which IC50 is on record?
Its IC50 is 0.04 µM.

`CC1=C(N2CCC3(CCN(C[C@H](O)c4cnc(-n5cnnn5)c(C)n4)CC3)C2=O)COC1=O` [Example 87, 8-{(2S)-2-hydroxy-2-[6-methyl-5-(1H-tetrazol-1-yl)pyrazin-2-yl]ethyl}-2-(4-methyl-5-oxo-2,5-dihydrofuran-3-yl)-1-oxo-2-aza-8-azoniaspiro[4.5]decane] was tested. Which IC50 did it give?
The IC50 was 0.05 µM.

`CC1=C(N2CCC3(CCN(C[C@@H](O)c4cnc(-n5cnnn5)c(C)n4)CC3)C2=O)COC1=O` [Example 88, 8-{(2R)-2-hydroxy-2-[6-methyl-5-(1H-tetrazol-1-yl)pyrazin-2-yl]ethyl}-2-(4-methyl-5-oxo-2,5-dihydrofuran-3-yl)-1-oxo-2-aza-8-azoniaspiro[4.5]decane] was tested. Which IC50 did it give?
Its IC50 is 0.04 µM.

How did the IC50 turn out when `COc1cc(-n2cnnn2)ncc1[C@@H](O)CN1CCC2(CC1)CCN(C1=C(C)C(=O)OC1)C2=O` [Example 93, 8-{(2R)-2-hydroxy-2-[4-methoxy-6-(1H-tetrazol-1-yl)pyridin-3-yl]ethyl}-2-(4-methyl-5-oxo-2,5-dihydrofuran-3-yl)-1-oxo-2-aza-8-azoniaspiro[4.5]decane] was run?
The IC50 was 0.03 µM.

How did the IC50 turn out when `COc1cc(-n2cnnn2)ncc1[C@H](O)CN1CCC2(CC1)CCN(C1=C(C)C(=O)OC1)C2=O` [Example 94, 8-{(2S)-2-hydroxy-2-[4-methoxy-6-(1H-tetrazol-1-yl)pyridin-3-yl]ethyl}-2-(4-methyl-5-oxo-2,5-dihydrofuran-3-yl)-1-oxo-2-aza-8-azoniaspiro[4.5]decane] was run?
Its IC50 is 0.02 µM.

`CC1=C(N2CCC3(CCN(C[C@H](O)c4ccc(-n5cnnn5)c(C#N)c4)CC3)C2=O)COC1=O` [Example 95, 8-{(2R)-2-[3-cyano-4-(1H-tetrazol-1-yl)phenyl]-2-hydroxyethyl}-2-(4-methyl-5-oxo-2,5-dihydrofuran-3-yl)-1-oxo-2-aza-8-azoniaspiro[4.5]decane] was tested. Which IC50 did it give?
The IC50 was 0.05 µM.
